The source of these data is US5830910A (priority 1995, dated 1998).

Data set [1] relates to cultured hippocampal neurons. Nature of the data set: cells. It counts as cell-based, rat. From the text: (§1) Dissociated embryonic rat hippocampal cell cultures were established and maintained. All procedures conformed with the NIH Guide for the Care and Use of Laboratory Animals and were approved by the University of Kentucky Animal Care and Use Committee. Cultures were maintained on a polyethyleneimine-coated substrate in plastic 35-mm dishes or 96 wall plates (for cell survival studies) or glass-bottom 35-mm dishes (for [Ca^2+ ]i imaging studies). The cell density was ^~ 70-100 cells/mm^2. Cells were maintained in Eagle's minimum essential medium supplemented 10% with fetal bovine serum and containing 20 mM sodium pyruvate. […] Aβ25-35 (Bachem, lot ZJ744) and Aβ1-40 (Bachem, lot ZK600) were stored in the lyophilized form, and stocks were prepared immediately before use by dissolving the peptide at a concentration of 1 mM in sterile distilled water. […] Glutamate and colchicine (Sigma) were prepared as 200-500x stocks in saline. Cytochalasins D and E (Sigma) and calcium ionophore 4-bromo-A23187 (Calbiochem) were prepared as 500x stocks in dimethyl sulfoxide. Vitamin E (α-tocopherol; Sigma) was prepared as a 500x stock in ethanol. Nordihydroguaiaretic acid and FeSo4 were prepared as 500x stocks in sterile water.
(§2) Neuronal survival was quantified by counting viable neurons in the same microscope fields (10x objective) immediately before experimental treatment and at time points after treatment. In addition, cells were grown in 96-well plates and Alamar blue fluorescence (Alamar Laboratories)was quantified by using a fluorescence plate reader. Alamar Blue is a non-fluorescent substrate that, after reduction by cell metabolites, becomes fluorescent. Usually neurons that died in the time intervals (20-48 h) between examination points were absent. Viability of the remaining neurons was assessed by morphological criteria. Neutrons with intact neurites of uniform diameter and a soma with a smooth, round appearance were considered viable, whereas neurons with fragmented neurites and a vacuolated or swollen soma were considered nonviable. Survival values were expressed as percentages of the initial number of neurons present before experimental treatment. Statistical comparisons were made using ANOVA and Scheffe post-hoc tests for pairwise comparisons.
Values represent the means and SEM of 4 separate cultures (cell counts) or 4 culture wells (Alamar blue assay). ^a p<0.05 compared to control value. ^b p<0.001 compound to control value. ^c p<0.01 compared to value for glutamate-treated cultures. ^d p<0.005 compared to value for glutamate-treated cultures. ^e p<0.001 compared to value for Aβ-treated cultures. ^f p<0.001 compared to value for cultures treated with 20 μM glutamate. ^g p<0.001 compared to cultures treated with 50 μM Aβ+20 μM glutamate. n.d. not determined.

Data set [2] relates to neuronal [Ca^2+]i in cultured hippocampal neurons. Nature of the data set: measurement of [Ca^2+]i, fura-2 imaging. It counts as cell-based, rat. The note with it: 50 μM Aβ.
Source text: as §1
Fluorescence ratio imaging of the Ca^2+ indicator dye fura-2 was used to quantify [Ca^2+ ]i in neuronal somata. Cells were incubated for 30-40 min in the presence of 2 μM acetoxymethyl ester form of the [Ca^2+ ]i indicator dye fura-2 and were then washed twice (2 ml/wash) with fresh medium and allowed to incubate at least 40 min before imaging. Immediately before imaging, the normal culture medium was replaced with Hanks' balanced saline solution (GIBCO) containing 10 mM HEPES buffer and 10 mM of glucose. Cells were imaged using a Zeiss Attofluor system with a oil objective or Quantex system with a 40x oil objective. The ratio of the fluorescence emission using two different excitation wavelengths (334 and 380 nm) was used to determine [Ca^2+ ]i. The system was calibrated using solutions containing either no Ca^2+ or a saturating level of Ca^2+ (1 mM) according to the following formula: [Ca^2+ ]i =KD [(R-Rmin) / (Rmax -R)] (F0 /FS). Values represent the average [Ca^2+ ]i in the neuronal cell body. Experimental treatments were added to the bathing medium by dilution from 100-500x stocks.
(A) Cultures were pretreated for 1 hr with 100 nM cytochalasin D and then [Ca^2+ ]i in neurons was monitored prior to and following exposure to 50 μM glutamate. The records represent the mean [Ca^2+ ]i in 8-12 neurons. Similar results were obtained in 4 separate experiments.
(B) Aβ-induced potentiation of [Ca^2+ ]i response to glutamate is abrogated by cytochalasin D. Cultures were left untreated (Control) or were exposed to 20 μM Aβ25-35 for 6 hr or cytochalasin D plus Aβ25-35 for 6 hr. The [Ca^2+ ]i was then monitored prior to following exposure to 50 μM glutamate. Values represent the means of 8-14 neurons. Similar results were obtained in 3 separate experiments.
(C) Cultures were pretreated for 3 hr with 50 μM Aβ alone or in combination with 100 nM cytochalasin D. The [Ca^2+ ]i in neurons was then monitored prior to and following exposure to 50 mM KCl. Values represent the mean of 14-23 neurons. Similar results were obtained in a separate experiment.
(D) Cultures were pretreated for 1 h with 100 nM cytochalasin D. The [Ca^2+ ]i in neurons was measured immediately prior to, and at 5 min following, exposure to the indicated concentrations of glutamate. Values represent the means and SEM of determinations made in 17-26 neurons. *P<0.05 (10 μM glutamate), P<0.02 (50 μM glutamate), P<0.01 (100 μAM glutamate) compared to corresponding control values.
FIG. 9. Cultures were pretreated for 3 h with vehicle (control) or 10 μM jasplakinolide. The [Ca^2+ ]i was monitored prior to and following exposure to 50 μM glutamate. Values represent the mean of determinations made in 10-12 neurons. Similar results were obtained in two additional experiments.
FIG. 10. […]

Data set [3] deals with cultured hippocampal neurons. Type of data set: cell-based, rat. The note with it: for neurotoxicity, preliminary characterization: 48-h period, added in soluble form.
Source text: as §1, §2
FIG. 12. (A) Cultures were pretreated for 1 h with vehicle 0.2% dimethyl sulfoxide (Control) or 100 nM cytochalasin D (CyD) and were exposed to the indicated concentrations of Aβ25-35 for 48 h. Data are mean and SEM values of determinations made in four separate cultures.
(B) Cultures were pretreated for 1 h with the indicated concentrations of cytochalasin D and then exposed to 50 μM Aβ25-35; parallel cultures were exposed to cytochalasin D alone (Control) . Data are mean and SEM values of determinations made in four separate cultures.
FIG. 14. Cultures were exposed to 100 nM colchicine; 50 μM Aβ; 100 nM colchicine plus 50 μM Aβ; 100 nM cytochalasin E (CyE) plus Aβ (colchicine and cytochalasin E were added 1 h before Aβ); neuronal survival was assessed 48 h later. Data are mean and SEM values of determinations made in four separate cultures. *p<0.01, compared with values for control or colchicine alone. **p<0.01, compared with value for cultures exposed to Aβ alone.

For data set [4], the system named is cultured hippocampal neurons. Nature of the data set: neurotoxicity of combined exposure to Aβ and glutamate. The note with it: 50 μM Aβ plus 20 μM glutamate, 48 h; compared with either insult alone. Type of data set: cell-based, rat. The text has this:
Dissociated embryonic rat hippocampal cell cultures were established and maintained. All procedures conformed with the NIH Guide for the Care and Use of Laboratory Animals and were approved by the University of Kentucky Animal Care and Use Committee. Cultures were maintained on a polyethyleneimine-coated substrate in plastic 35-mm dishes or 96 wall plates (for cell survival studies) or glass-bottom 35-mm dishes (for [Ca^2+ ]i imaging studies). The cell density was ^~ 70-100 cells/mm^2. Cells were maintained in Eagle's minimum essential medium supplemented 10% with fetal bovine serum and containing 20 mM sodium pyruvate. […]
(§3) Neuronal survival was quantified by counting viable neurons in the same microscope fields (10x objective) immediately before experimental treatment and at time points after treatment. In addition, cells were grown in 96-well plates and Alamar blue fluorescence (Alamar Laboratories)was quantified by using a fluorescence plate reader. […] Viability of the remaining neurons was assessed by morphological criteria. […] Survival values were expressed as percentages of the initial number of neurons present before experimental treatment. […]
FIG. 13. […] Neuronal survival was assessed 48 h after treatment. […]

Data set [5] can be described thus: aggregation of peptides in culture medium. Type of data set: physicochemical.
Source text: as §1

Data set [6] has as its system neuronal [Ca^2+]i in cultured hippocampal neurons. Nature of the data set: measurement of [Ca^2+]i, fura-2 imaging. The note with it: 50 μM glutamate. Type of data set: cell-based, rat.
The test system of data set [7] is cultured hippocampal neurons. Nature of the data set: hydrogen peroxide neurotoxicity. It counts as cell-based, rat.
Source text: as §1
as §2, with “Usually neurons that died in the time intervals (20-48 h) between examination points were absent.” left out
FIG. 15. […] Cultures were pretreated for 1 h with vehicle (Control), 100 nM cytochalasin D (CyD), or 50 μg/ml vitamin E (vE) and then exposed for 20 h to the indicated concentrations of hydrogen peroxide. Data are mean and SEM values of determinations made in four separate cultures.

Data set [8] concerns cultured hippocampal neurons. Nature of the data set: calcium ionophore A23187 neurotoxicity. Type of data set: cell-based, rat.
Source text: as §1
as §3, with “reader. Alamar Blue is a non-fluorescent substrate that, after reduction by cell metabolites, becomes fluorescent.” for “reader.”
FIG. 7. Cultures were pretreated for 1 h with 0.2% dimethylsulfoxide (control) or 100 nM cytochalasin D. Calcium ionophore A23187 was then added at the indicated concentrations and neuronal survival was assessed 8 h later. […]

In data set [9] the test system is cultured hippocampal neurons. Nature of the data set: iron (FeSO4) neurotoxicity. It counts as cell-based, rat. Conditions: 50 μg/ml vitamin E or 2 μM NDGA, 1 h preincubation.
Source text: as §1, §2
FIG. 8. Cultures were preincubated 1 h in the presence of 0.5% dimethylsulfoxide (control), 100 nM cytochalasin D, 50 μg/ml vitamin E (VitE), or 2 μM nordihydroguairetic acid (NDGA). Cultures were then exposed for 6 h to the indicated concentrations of FeSO4 and neuronal survival was quantified. Values represent the means and SEM of determinations made in four separate cultures. *P<0.001 compared to value for cultures exposed to 100 μM FeSO4 alone.

Regarding “Aβ25-35: Aβ25-35 (Bachem, lot ZJ744), amyloid β-peptide fragment (GSNKGAIIGLM; Amyloid-beta protein 42; UniProt P05067 696-706, looked up, fragment) [reference compound]”, the “Neuron Survival (% of control), Alamar Blue Assay” value in [1] (50 μM Aβ + 20 μM Glutamate) is recorded as 24 ± 0.8 % of control; in data set [1] (50 μM, alone) it was 47 ± 3.5 % of control. For the same compound, the “rest [Ca^2+]i” value is ~ 280 nM in data set [2] (3 h) and ~ 440 nM in [2] (6 h). The “neuronal survival in cultures exposed to Aβ25-35” value in [3] (50 μM, 24 hr) was “less than 50 % of control values”. Moreover, the “neuronal survival upon exposure to Aβ25-35” value in data set [3] (24-h incubation) is “concentration-dependent reduction in neuronal survival”. The “neurotoxicity, preliminary characterization” value in data set [3] was “progressively killed neurons”. In [4], the “neuronal death on combined exposure to Aβ and glutamate” value was “significantly more neuronal death”. The “aggregation in culture medium” value in data set [5] was “aggregated rapidly”. Besides, the “[Ca^2+]i reached after glutamate in Aβ-pretreated cultures” value in data set [6] (Aβ pretreatment 3 h) is on record as > 1,500 nM; in data set [6] (Aβ pretreatment 3 hr), “over 1 μM”.
With “Aβ1-40: Aβ1-40 (Bachem, lot ZK600), amyloid β-peptide [reference compound]”, the “neurotoxicity, preliminary characterization” value in [3] is given as “progressively killed neurons”. Also, the “aggregation in culture medium” value in data set [5] is “aggregated rapidly”.
Consider `OO` [Hydrogen peroxide, hydrogen peroxide, reference compound], for which, in [7] (20-h exposure), the neuronal survival result is reported as “concentration-dependent reduction in neuronal survival”.
On to `CNc1ccc2oc(C[C@H]3O[C@@]4(CC[C@H]3C)O[C@H]([C@H](C)C(=O)c3ccc[nH]3)[C@H](C)C[C@H]4C)nc2c1C(=O)O` [A23187], for which, in [8] (1 μM), the neurons killed result is “essentially all neurons being killed”. Moreover, the neuronal survival entry in [8] (100-1000 nM) is listed as “concentration-dependent reduction in neuronal survival”.
As to `Cc1c(C)c2c(c(C)c1O)CCC(C)(CCCC(C)CCCC(C)CCCC(C)C)O2` (stereo not drawn) [Vitamin E, α-tocopherol, reference compound], the “effect on neurotoxicity of iron” value in [9] is on record as “completely blocked”. For the same compound, the “effect on neurotoxicity of hydrogen peroxide” value in data set [7] (50 μg/ml, 1 h pretreatment, 20 h) is recorded as “largely prevented”.
